Experimental data as given in PubChem BioAssay AID248 (DTP/NCI, 2004).
Inconclusive results and toxic doses are left out.

System: L1210 leukemia ip in BDF1 mice, survival T/C
Test: NCI In Vivo Anticancer Drug Screen. Data for tumor model L1210 Leukemia (intraperitoneal) in B6D2F1 (BDF1) mice
Conditions: endpoint: mean survival time, higher = longer survival
Method in brief: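 Each compound was tested against a transplantable tumor grown in mice. The endpoint was survival, with treated animals benchmarked against vehicle controls as a simple ratio.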

[1] = dose: 100.0 mg/kg/injection, schedule: Q01DX001 (ip), vehicle: saline
[2] = dose: 200.0 mg/kg/injection, schedule: Q01DX001 (ip), vehicle: saline
[3] = dose: 400.0 mg/kg/injection, schedule: Q01DX001 (ip), vehicle: saline

O=NN(CCCl)C(=O)NC1(C(=O)O)CCCC1
T/C (dose: 15.0 mg/kg/injection, schedule: Q01DX001 (ip), vehicle: saline with Tween-80): 109 % of control | T/C (dose: 23.0 mg/kg/injection, schedule: Q01DX001 (ip), vehicle: saline with Tween-80): 113 % of control | T/C (dose: 50.0 mg/kg/injection, schedule: Q01DX001 (ip), vehicle: Klucel (hydroxypropylcellulose) (HPC)): 121 % of control | T/C (dose: 75.0 mg/kg/injection, schedule: Q01DX001 (ip), vehicle: Klucel (hydroxypropylcellulose) (HPC)): 172 % of control | T/C (dose: 75.0 mg/kg/injection, schedule: Q01DX001 (ip), vehicle: carboxymethylcellulose (CMC)): 162 % of control | T/C (dose: 80.0 mg/kg/injection, schedule: Q01DX001 (ip), vehicle: saline with Tween-80): 152 % of control | T/C (dose: 112.0 mg/kg/injection, schedule: Q01DX001 (ip), vehicle: Klucel (hydroxypropylcellulose) (HPC)): 243 % of control | T/C (dose: 112.0 mg/kg/injection, schedule: Q01DX001 (ip), vehicle: carboxymethylcellulose (CMC)): 168 % of control | T/C (dose: 119.0 mg/kg/injection, schedule: Q01DX001 (ip), vehicle: saline with Tween-80): 252 % of control | T/C (dose: 168.0 mg/kg/injection, schedule: Q01DX001 (ip), vehicle: Klucel (hydroxypropylcellulose) (HPC)): 310 % of control | T/C (dose: 168.0 mg/kg/injection, schedule: Q01DX001 (ip), vehicle: carboxymethylcellulose (CMC)): 272 % of control | T/C (dose: 178.0 mg/kg/injection, schedule: Q01DX001 (ip), vehicle: saline with Tween-80): 274 % of control | T/C (dose: 252.0 mg/kg/injection, schedule: Q01DX001 (ip), vehicle: Klucel (hydroxypropylcellulose) (HPC)): 106 % of control | T/C (dose: 252.0 mg/kg/injection, schedule: Q01DX001 (ip), vehicle: carboxymethylcellulose (CMC)): 89 % of control | T/C (dose: 266.0 mg/kg/injection, schedule: Q01DX001 (ip), vehicle: saline with Tween-80): 246 % of control

CCOC(=O)C(Cc1ccc(O)c([N+](=O)[O-])c1)N1C(=O)c2ccccc2C1=O (centres undefined)
T/C [1]: 107 % of control | T/C [2]: 92 % of control | T/C [3]: 95 % of control

CC1NCc2c(N)nc(N)nc21 (centres undefined)
T/C (dose: 100.0 mg/kg/injection, schedule: Q01DX001 (ip), vehicle: carboxymethylcellulose (CMC)): 98 % of control | T/C (dose: 200.0 mg/kg/injection, schedule: Q01DX001 (ip), vehicle: carboxymethylcellulose (CMC)): 95 % of control | T/C (dose: 400.0 mg/kg/injection, schedule: Q01DX001 (ip), vehicle: carboxymethylcellulose (CMC)): 98 % of control

CC(=O)Nc1cccc(-c2ccccc2Cl)c1
T/C [1]: 93 % of control | T/C [2]: 96 % of control | T/C [3]: 98 % of control

CC(C)(C)NC(=O)Nc1ccc2ccccc2c1
T/C (dose: 100.0 mg/kg/injection, schedule: Q01DX009 (ip), vehicle: other): 93 % of control | T/C (dose: 200.0 mg/kg/injection, schedule: Q01DX009 (ip), vehicle: other): 89 % of control | T/C (dose: 400.0 mg/kg/injection, schedule: Q01DX009 (ip), vehicle: other): 94 % of control

Cc1[nH]nc(C(=O)O)c1Br
T/C (dose: 25.0 mg/kg/injection, schedule: Q01DX005 (ip), vehicle: saline): 100 % of control | T/C (dose: 50.0 mg/kg/injection, schedule: Q01DX005 (ip), vehicle: saline): 105 % of control | T/C (dose: 100.0 mg/kg/injection, schedule: Q01DX005 (ip), vehicle: saline): 122 % of control | T/C (dose: 200.0 mg/kg/injection, schedule: Q01DX005 (ip), vehicle: saline): 102 % of control | T/C (dose: 400.0 mg/kg/injection, schedule: Q01DX005 (ip), vehicle: saline): 113 % of control

COc1ccc(/C=C(\C#N)c2cccc3ccccc23)cc1
T/C (dose: 100.0 mg/kg/injection, schedule: Q04DX003 (ip), vehicle: Klucel (hydroxypropylcellulose) (HPC)): 98 % of control | T/C (dose: 200.0 mg/kg/injection, schedule: Q04DX003 (ip), vehicle: Klucel (hydroxypropylcellulose) (HPC)): 105 % of control | T/C (dose: 400.0 mg/kg/injection, schedule: Q04DX003 (ip), vehicle: Klucel (hydroxypropylcellulose) (HPC)): 90 % of control

CCOC(=O)Sc1nc2ccccc2[nH]1
T/C (dose: 75.0 mg/kg/injection, schedule: Q04DX003 (ip), vehicle: saline with Tween-80): 101 % of control | T/C (dose: 150.0 mg/kg/injection, schedule: Q04DX003 (ip), vehicle: saline with Tween-80): 98 % of control | T/C (dose: 300.0 mg/kg/injection, schedule: Q04DX003 (ip), vehicle: saline with Tween-80): 87 % of control

O=C1c2ccccc2C(=O)c2c(Sc3ccccc3)cccc21
T/C (dose: 100.0 mg/kg/injection, schedule: Q04DX003 (ip), vehicle: saline with Tween-80): 96 % of control | T/C (dose: 200.0 mg/kg/injection, schedule: Q04DX003 (ip), vehicle: saline with Tween-80): 98 % of control | T/C (dose: 400.0 mg/kg/injection, schedule: Q04DX003 (ip), vehicle: saline with Tween-80): 95 % of control

Nc1ccc(CCCNc2c(N)nc(N)nc2-c2ccccc2)cc1
T/C (dose: 50.0 mg/kg/injection, schedule: Q01DX001 (ip), vehicle: saline): 100 % of control | T/C [1]: 103 % of control | T/C [2]: 94 % of control
